Where “and” joins values, the source holds several entries; their conditions need not be identical. Equal values may be shown once. Read-outs that look alike come from different tables or passages of the source.
Legend:
SARS-CoV-2 Delta variant [1] = test system: SARS-CoV-2 Delta variant; parameters: species or system Syrian hamsters; details: hamster, in vivo
SARS-CoV-2 Delta variant [2] = type: in vivo, Syrian hamsters; details: for viral load in the lungs of contact hamsters: 6 days after co-housing
SARS-CoV-2 Delta variant [3] = test system: SARS-CoV-2 Delta variant; parameters: species or system Syrian hamsters; details: hamster, in vivo; remark: listed apart in the source
SARS-CoV-2 Delta variant [4] = type: in vivo, Syrian hamsters; details: for lung pathology / histopathological findings of viral pneumonia: hamster, in vivo; for histopathological severity of viral pneumonia / viral RNA by ISH: therapeutic treatment
SARS-CoV-2 Delta variant [5] = assay: Light sheet microscopy of whole lungs (viral antigen distribution); parameters: species or system Syrian hamsters; details: hamster, in vivo
SARS-CoV-2 Delta variant [6] = assay: Antiviral activity of main protease inhibitors with P-gp inhibitor CP-100356 (intracellular viral RNA); type: cell-based; details: Vero-TMPRSS2; S-217622 100 nM, nirmatrelvir 300 nM; CP-100356 1 μM
SARS-CoV-2 Delta variant [7] = type: cell-based; details: Vero-TMPRSS2 and Calu-3 cells
[8] = test system: SARS-CoV-2 Omicron variant (lineage BA.1); type: cell-based; details: Vero-TMPRSS2, fig. S5
SARS-CoV-2 Delta variant [9] = type: cell-based; details: Vero-TMPRSS2 and Calu-3 cells; remark: listed apart in the source
SARS-CoV-2 Delta variant [10] = type: cell-based; details: HBE cells, 333 nM or more; detection limit of the plaque assay
SARS-CoV-2 Delta variant [11] = type: cell-based; details: HBE cells
SARS-CoV-2 Delta variant [12] = assay: Time of addition assay in Calu-3 cells; type: cell-based
[13] = prophylactic, MPV, S-217622 30 mg/kg
[14] = prophylactic, S-217622 200 mg/kg

SMILES: CC(C)C(=O)OC[C@H]1O[C@@H](n2ccc(NO)nc2=O)[C@H](O)[C@@H]1O [Molnupiravir, reference compound]
- Fig. 2H: Relative Ifng RNA level (SARS-CoV-2 Delta variant [1]; listed as MPV): 3.06 and 2.07 and 2.71 and 2.27
- Fig. 2I: Relative Il6 RNA level (SARS-CoV-2 Delta variant [1]; listed as MPV): 2.40 and 3.11 and 2.02 and 2.46
- Fig. 2J: Relative Il10 RNA level (SARS-CoV-2 Delta variant [1]; listed as MPV): 3.33 and 2.30 and 2.69 and 2.83
- Fig. 2K: Relative Cxcl10 RNA level (SARS-CoV-2 Delta variant [1]; listed as MPV): 14.61 and 18.50 and 12.76 and 10.96
- viral load in the lungs of contact hamsters (SARS-CoV-2 Delta variant [2]; […]): high viral load was detected
- Fig. 2N: Virus titer (SARS-CoV-2 Delta variant [2]; hamster, in vivo, listed as MPV): 1250000 and 1400000 and 800000
- viral loads in nasal turbinates (SARS-CoV-2 Delta variant [3]): limited effect
- viral loads in the lungs (SARS-CoV-2 Delta variant [3]): decreased
- Fig. 4E: Virus titer (SARS-CoV-2 Delta variant [3]; listed as MPV): 700000 and 600000 and 1200000
- Fig. 4G: Relative Ifng RNA level (SARS-CoV-2 Delta variant [3]; listed as MPV): 3.06 and 2.07 and 2.71 and 2.27
- Fig. 4H: Relative Il6 RNA level (SARS-CoV-2 Delta variant [3]; listed as MPV): 2.40 and 3.11 and 2.02 and 2.46
- Fig. 4I: Relative Il10 RNA level (SARS-CoV-2 Delta variant [3]; listed as MPV): 3.33 and 2.30 and 2.69 and 2.83
- Fig. 4J: Relative Cxcl10 RNA level (SARS-CoV-2 Delta variant [3]; listed as MPV): 14.61 and 18.50 and 12.76 and 10.96
- Fig. 4K: Neutralizing antibody titer (SARS-CoV-2 Delta variant [3]; listed as MPV): 640 and 1280
- Histopathological severity score (SARS-CoV-2 Delta variant [4]; Fig. 5B, MPV group, individual animals, listed as MPV): 17 and 13
- Histopathological severity score (SARS-CoV-2 Delta variant [4]; Fig. 5D, MPV group, individual animals, listed as MPV): 17 and 12 and 18 and 19
- lung pathology / histopathological findings of viral pneumonia (SARS-CoV-2 Delta variant [4]): prominent
- viral RNA by in situ hybridization (ISH) (SARS-CoV-2 Delta variant [4]; [13]): decreased
- histopathological severity of viral pneumonia (SARS-CoV-2 Delta variant [4]): neither MPV or S-217622 could attenuate
- viral RNA by ISH (SARS-CoV-2 Delta variant [4]): Positive signals for viral RNA were also detected
- signal distribution of viral antigen in the lungs (SARS-CoV-2 Delta variant [5]): decreased the viral distribution

SMILES: CC(C)(C)[C@H](NC(=O)C(F)(F)F)C(=O)N1C[C@H]2[C@@H]([C@H]1C(=O)N[C@H](C#N)C[C@@H]1CCNC1=O)C2(C)C [Nirmatrelvir]
- effect of CP-100356 on antiviral activity (SARS-CoV-2 Delta variant [6]): enhanced

SMILES: Cn1cnc(Cn2c(=O)[nH]/c(=N\c3cc4cn(C)nc4cc3Cl)n(Cc3cc(F)c(F)cc3F)c2=O)n1 [S-217622]
- progeny viral RNA in the culture supernatants (SARS-CoV-2 Delta variant [7]): reduced the progeny viral RNA
- antiviral potency against Omicron variant (lineage BA.1) [8]: remarkable antiviral potency
- Infection with SARS-CoV-2 (immunofluorescence) (SARS-CoV-2 Delta variant [9]): inhibited
- progeny virus titers (SARS-CoV-2 Delta variant [10]): < 100
- LDH release into basal culture medium (SARS-CoV-2 Delta variant [11]): decreased
- Fig. 1I: Relative viral RNA to mock treated (SARS-CoV-2 Delta variant [12]; Both stages, third column group c10-c13): 0.047 and 0.045 and 0.032
- effect on cellular entry process (0 to 2 hpi) (SARS-CoV-2 Delta variant [12]; Calu-3, 1 μM): but not the cellular entry process of infection
- effect on post-entry process (2 to 7 hpi) (SARS-CoV-2 Delta variant [12]; Calu-3, 1 μM): has an effect on the post-entry process
- Fig. 1I: Relative viral RNA to mock treated (SARS-CoV-2 Delta variant [12]; Entry, first column group c0-c3): 1.24 and 0.89 and 1.15
- Fig. 1I: Relative viral RNA to mock treated (SARS-CoV-2 Delta variant [12]; Entry, third column group c10-c13): 0.033 and 0.037 and 0.04
- Fig. 1I: Relative viral RNA to mock treated (SARS-CoV-2 Delta variant [12]; Post-entry, first column group c0-c3): 0.007 and 0.006
- Fig. 1I: Relative viral RNA to mock treated (SARS-CoV-2 Delta variant [12]; Post-entry, third column group c10-c13): 1.03 and 0.85 and 0.71
- effect of CP-100356 on antiviral activity (SARS-CoV-2 Delta variant [6]): enhanced
- antiviral activity compared with nirmatrelvir in hamsters (SARS-CoV-2 Delta variant [1]): higher antiviral activity than nirmatrelvir
- body weight (SARS-CoV-2 Delta variant [1]): continuously gained weight
- decrease in viral RNA load (SARS-CoV-2 Delta variant [1]): more than 10^5 fold
- expression of inflammatory cytokines (SARS-CoV-2 Delta variant [1]): decreased the expression of inflammatory cytokines
- seroconversion (SARS-CoV-2 Delta variant [1]): No seroconversion was observed
- virus titers (SARS-CoV-2 Delta variant [1]): under the detection limit
- Fig. 2D: Viral RNA (SARS-CoV-2 Delta variant [1]; 30 mg/kg): 9351446 and 5264474 and 6254487 and 4687980
- Fig. 2F: Virus titer (SARS-CoV-2 Delta variant [1]; 30 mg/kg): 2500000 and 1700000 and 2600000 and 3300000
- Fig. 2I: Relative Il6 RNA level (SARS-CoV-2 Delta variant [1]; 30 mg/kg): 1.88 and 3.04 and 1.64 and 1.56
- Fig. 2K: Relative Cxcl10 RNA level (SARS-CoV-2 Delta variant [1]; 30 mg/kg): 5.91 and 3.38 and 3.37 and 5.99
- Fig. 2L: Neutralizing antibody titer (SARS-CoV-2 Delta variant [1]; 30 mg/kg): 160 and 320
- Fig. 2F: Virus titer (SARS-CoV-2 Delta variant [1]; 200 mg/kg): n.d.(=100)
- Fig. 2G: Virus titer (SARS-CoV-2 Delta variant [1]; 200 mg/kg): n.d.(=100)
- Fig. 2I: Relative Il6 RNA level (SARS-CoV-2 Delta variant [1]; 200 mg/kg): 1.73 and 2.57 and 2.07 and 2.20
- Fig. 2K: Relative Cxcl10 RNA level (SARS-CoV-2 Delta variant [1]; 200 mg/kg): 0.55 and 0.70 and 0.74 and 0.64
- Fig. 2L: Neutralizing antibody titer (SARS-CoV-2 Delta variant [1]; 200 mg/kg): n.d.(=10)
- viral load in the lungs of contact hamsters (SARS-CoV-2 Delta variant [2]; […]): no detectable viral titers
- Fig. 2N: Virus titer (SARS-CoV-2 Delta variant [2]; hamster, in vivo, 200 mg/kg): n.d.(=100)
- Fig. 2N: Virus titer (SARS-CoV-2 Delta variant [2]; second block c10-c12 (six animals: contact hamsters, 6 days after co-housing), […], 200 mg/kg): n.d.(=100)
- decrease of virus titer in the lung (SARS-CoV-2 Delta variant [3]): greater than 10^3 fold
- expression of Il6 (SARS-CoV-2 Delta variant [3]): decreased the expression of Il6
- peak of body weight loss (SARS-CoV-2 Delta variant [3]): 7% and 5%
- viral loads in nasal turbinates (SARS-CoV-2 Delta variant [3]): limited effect
- viral loads in the lungs (SARS-CoV-2 Delta variant [3]): decreased
- Fig. 4H: Relative Il6 RNA level (SARS-CoV-2 Delta variant [3]; 30 mg/kg): 1.88 and 3.04 and 1.64 and 1.56
- Fig. 4J: Relative Cxcl10 RNA level (SARS-CoV-2 Delta variant [3]; 30 mg/kg): 5.91 and 3.38 and 3.37 and 5.99
- Fig. 4C: Viral RNA (SARS-CoV-2 Delta variant [3]; 200 mg/kg): 184497 and 149004 and 250553 and 219560
- Fig. 4H: Relative Il6 RNA level (SARS-CoV-2 Delta variant [3]; 200 mg/kg): 1.73 and 2.57 and 2.07 and 2.20
- Fig. 4J: Relative Cxcl10 RNA level (SARS-CoV-2 Delta variant [3]; 200 mg/kg): 0.55 and 0.70 and 0.74 and 0.64
- Histopathological severity score (SARS-CoV-2 Delta variant [4]; Fig. 5B, S-217622 dose group 30, individual animals): 14 and 7 and 4 and 5
- Histopathological severity score (SARS-CoV-2 Delta variant [4]; Fig. 5B, S-217622 dose group 200, individual animals): 3 and 5 and 4 and 7
- Histopathological severity score (SARS-CoV-2 Delta variant [4]; Fig. 5D, S-217622 dose group 30, individual animals): 14 and 16 and 15 and 13
- Histopathological severity score (SARS-CoV-2 Delta variant [4]; Fig. 5D, S-217622 dose group 200, individual animals): 17 and 19 and 20 and 6
- lung pathology / histopathological findings of viral pneumonia (SARS-CoV-2 Delta variant [4]): attenuated the lung pathology in a dose-dependent manner
- viral RNA by in situ hybridization (ISH) (SARS-CoV-2 Delta variant [4]; [13]): decreased
- Histopathological severity score (SARS-CoV-2 Delta variant [4]; [14]): lower than the vehicle control group
- viral RNA by in situ hybridization (ISH) (SARS-CoV-2 Delta variant [4]; [14]): undetectable
- histopathological severity of viral pneumonia (SARS-CoV-2 Delta variant [4]): neither MPV or S-217622 could attenuate
- viral RNA by ISH (SARS-CoV-2 Delta variant [4]): Positive signals for viral RNA were also detected
- signal distribution of viral antigen in the lungs (SARS-CoV-2 Delta variant [5]): limited

Source: article PMC9765455 (Science Translational Medicine, 2022)
